Results taken from US20260207563A1, “UREA COMPOUNDS AS ACTIVATORS OF POTASSIUM CHANNELS KV7.2/7.3 USEFUL IN THE TREATMENT OF CNS AND PNS DISORDERS” (ANGELINI PHARMA S.P.A., priority 2022, published 2026).

Assays:
Assay type in all cases: cell-based
[1] = target: T1, homomeric KV7.4 channel (KCNQ4) (Homo sapiens, UniProt P56696); assay: Automated patch-clamp (Qube) counter-screening assay against KV7.4 channel; settings: CHO-K1 cells expressing KV7.4; class by maximal shift in the Vhalf at 30 μM
T1 construct: host or cells: CHO-K1
Outline: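 EC50 and maximal shift in half-activation voltage come from 4-parameter logistic fits of mean Vhalf shifts. The series had ten 1-in-3 concentrations, highest 30 μM, each tested in quadruplicate. Recordings used automated Qube patch clamp on a stable CHO-K1 line expressing KCNQ4, and selectivity was judged from the 30 μM Vhalf shift.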

[2] = target: T2, heteromeric KV7.3/KV7.5 channel (KCNQ3, KCNQ5) (Homo sapiens, UniProt O43525+Q9NR82); assay: Automated patch-clamp counter-screening against KV7.3/KV7.5 channel; settings: HEK293 cells expressing Kv7.3/KV7.5; class by maximal shift in the Vhalf at 30 μM
T2 construct: host or cells: HEK293
Outline: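 Potency came from a 4-parameter logistic fit of mean voltage-of-half-activation shifts, yielding EC50 and maximal shift; selectivity was judged on the shift at 30 μM. Compounds were applied at ten 3-fold dilutions from 30 μM in quadruplicate to HEK293 cells stably carrying Kv7.3 with tet-inducible Kv7.5.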

[3] = target: T3, heteromeric KV7.2/KV7.3 channels (KCNQ2, KCNQ3) (Homo sapiens, UniProt O43525+O43526); assay: Automated patch-clamp (Sophion Qube 384) potency assay against KV7.2/KV7.3 channels; settings: CHO-K1/Kv7.2/Kv7.3 cells; for EC50: EC50 from concentration-response of shift in Vhalf, 10 concentrations up to 30 μM, read-out: Kv7.2/7.3 EC50; for Kv7.2/7.3 ΔV1/2: maximal shift in the Vhalf from the top of the curve
T3 construct: expressed in transfected cells; host or cells: CHO-K1
Outline: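 Activator potency: EC50 from 4-parameter logistic fit of mean Vhalf shift across ten 1-in-3 dilutions starting at 30 μM (n=4), with DMSO (typically 0.3%) control. Currents recorded by leak-subtracted whole-cell clamp of stable CHO-K1 KV7.2/KV7.3 cells, held at −80 mV, stepped −100 to +20 mV then 0 mV tails.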

SMILES	Kv7.4 selectivity criteria [1]	Kv7.3/7.5 selectivity criteria [2]	EC50 [3]	Kv7.2/7.3 ΔV1/2 [3]
N#Cc1cccc2c1CC[C@H]2NC(=O)NCc1ccnc(OCC(F)(F)F)c1 [Compound 158]	B (Non-selective compounds showed Kv7.4 and/or Kv7.3/7.5 ΔV1/2 higher than 15 mV (letter B in table 3))	B (Non-selective compounds showed Kv7.4 and/or Kv7.3/7.5 ΔV1/2 higher than 15 mV (letter B in table 3))	2.55 µM	31.18 mV
Cc1ccc2c(c1)[C@@H](NC(=O)NCc1ccnc(OCC(F)(F)F)c1)CC2 [Compound 159]	A (Selective compounds showed Kv7.4 and/or Kv7.3/7.5 ΔV1/2 equal to or lower than 15 mV (letter A in table 3))	A (Selective compounds showed Kv7.4 and/or Kv7.3/7.5 ΔV1/2 equal to or lower than 15 mV (letter A in table 3))	1.55 µM	15.05 mV
N#Cc1cccc2c1CC[C@@H]2NC(=O)NCc1ccnc(OCC(F)(F)F)c1 [Compound 160]	A (Selective compounds showed Kv7.4 and/or Kv7.3/7.5 ΔV1/2 equal to or lower than 15 mV (letter A in table 3))	A (Selective compounds showed Kv7.4 and/or Kv7.3/7.5 ΔV1/2 equal to or lower than 15 mV (letter A in table 3))	3.18 µM	25.41 mV
C#CCOc1cc(CNC(=O)NCC2CCC(F)(F)CC2)ccn1 [Compound 161]	A (Selective compounds showed Kv7.4 and/or Kv7.3/7.5 ΔV1/2 equal to or lower than 15 mV (letter A in table 3))	A (Selective compounds showed Kv7.4 and/or Kv7.3/7.5 ΔV1/2 equal to or lower than 15 mV (letter A in table 3))	7 µM	26.66 mV
O=C(NCc1ccnc(OCC(F)(F)F)c1)N[C@@H]1CCc2ccc(C(F)(F)F)cc21 [Compound 162]	B (Non-selective compounds showed Kv7.4 and/or Kv7.3/7.5 ΔV1/2 higher than 15 mV (letter B in table 3))	A (Selective compounds showed Kv7.4 and/or Kv7.3/7.5 ΔV1/2 equal to or lower than 15 mV (letter A in table 3))	0.926 µM	18.2 mV
O=C(NCc1ccnc(OCC(F)(F)F)c1)N[C@H]1CCc2ccc(C(F)(F)F)cc21 [Compound 163]	A (Selective compounds showed Kv7.4 and/or Kv7.3/7.5 ΔV1/2 equal to or lower than 15 mV (letter A in table 3))	A (Selective compounds showed Kv7.4 and/or Kv7.3/7.5 ΔV1/2 equal to or lower than 15 mV (letter A in table 3))	1.07 µM	27.41 mV
COc1cc2c(cc1F)CC[C@H]2NC(=O)NCc1ccnc(OCC(F)(F)F)c1 [Compound 164]	A (Selective compounds showed Kv7.4 and/or Kv7.3/7.5 ΔV1/2 equal to or lower than 15 mV (letter A in table 3))	A (Selective compounds showed Kv7.4 and/or Kv7.3/7.5 ΔV1/2 equal to or lower than 15 mV (letter A in table 3))	1.24 µM	25.3 mV
O=C(NCc1ccnc(OCC(F)(F)F)c1)N[C@@H]1COc2ccc(F)cc21 [Compound 165]	A (Selective compounds showed Kv7.4 and/or Kv7.3/7.5 ΔV1/2 equal to or lower than 15 mV (letter A in table 3))	A (Selective compounds showed Kv7.4 and/or Kv7.3/7.5 ΔV1/2 equal to or lower than 15 mV (letter A in table 3))	2.66 µM	28.4 mV
COc1ccc2c(c1)OC[C@H]2NC(=O)NCc1ccnc(OCC(F)(F)F)c1 [Compound 166]	A (Selective compounds showed Kv7.4 and/or Kv7.3/7.5 ΔV1/2 equal to or lower than 15 mV (letter A in table 3))	A (Selective compounds showed Kv7.4 and/or Kv7.3/7.5 ΔV1/2 equal to or lower than 15 mV (letter A in table 3))	8.43 µM	52.09 mV
